According to ChEMBL document CHEMBL1201862, “PubChem BioAssay data set” (2004):
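Briefly, cells in 96-well plates were exposed to five compound concentrations for 48 h, and endpoints were estimated by linear interpolation. GI50 is the concentration that inhibits growth by half.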 Activity calls are given as the source filed them. Cut-off read from the data, not from the text of the source: active = GI50 up to about 1.1 µM and inactive = higher.

Columns and labels:
Assay in all cases: NCI anticancer screen, dose series, 48 h
[1] = test system: SK-MEL-28
[2] = test system: A498
[3] = test system: HL-60
[4] = test system: A549
[5] = test system: OVCAR-4
[6] = test system: SNB-75
[7] = test system: SK-MEL-2
[8] = test system: KM12
[9] = test system: M14
[10] = test system: HOP-92
[11] = test system: HOP-62
[12] = test system: TK-10
[13] = test system: IGROV-1
[14] = test system: UO-31
[15] = test system: UACC-62
[16] = test system: RXF 393

SMILES	GI50 [1]	GI50 [2]	GI50 [3]	GI50 [4]	GI50 [5]	GI50 [6]	GI50 [7]	GI50 [8]	GI50 [9]	GI50 [10]	GI50 [11]	GI50 [12]	GI50 [13]	GI50 [14]	GI50 [15]	GI50 [16]
CCOC(=O)C1=C(OC(OCC)C(CC)[Se]c2ccccc2)CCC1 (configuration not stated)	32.3 µM (inactive)	41.2 µM (inactive)	12.4 µM (inactive)	77.4 µM (inactive)	13.2 µM (inactive)	25.3 µM (inactive)	31.5 µM (inactive)	39.4 µM (inactive)	15.1 µM (inactive)	19.3 µM (inactive)	78.5 µM (inactive)	82 µM (inactive)	25.6 µM (inactive)	28.9 µM (inactive)	17.8 µM (inactive)	19.5 µM (inactive)
CC(C)(C)C1=Cc2cc3cc(C(C)(C)C)[nH]c(=O)c3cc2S(=O)(=O)N1	31.3 µM (inactive)	53.2 µM (inactive)	21.2 µM (inactive)	23.2 µM (inactive)	24.6 µM (inactive)	37.8 µM (inactive)	18.7 µM (inactive)	30.6 µM (inactive)	14.6 µM (inactive)	16.7 µM (inactive)	22.3 µM (inactive)	29.6 µM (inactive)	–	17.1 µM (inactive)	18.4 µM (inactive)	–
COCC(=O)CP(=O)(OC)OC	> 100 µM (inactive)	> 100 µM (inactive)	> 100 µM (inactive)	> 100 µM (inactive)	> 100 µM (inactive)	> 100 µM (inactive)	> 100 µM (inactive)	> 100 µM (inactive)	> 100 µM (inactive)	> 100 µM (inactive)	> 100 µM (inactive)	> 100 µM (inactive)	> 100 µM (inactive)	> 100 µM (inactive)	> 100 µM (inactive)	> 100 µM (inactive)
Cc1cccc(C(=O)O)c1C(=O)c1cccc2ccccc12	> 100 µM (inactive)	88.3 µM (inactive)	–	> 100 µM (inactive)	> 100 µM (inactive)	> 100 µM (inactive)	98.2 µM (inactive)	> 100 µM (inactive)	> 100 µM (inactive)	–	> 100 µM (inactive)	> 100 µM (inactive)	> 100 µM (inactive)	> 100 µM (inactive)	> 100 µM (inactive)	> 100 µM (inactive)
O=[N+]([O-])c1cccc(C2SCc3nc4ccccc4n32)c1 (configuration not stated)	> 100 µM (inactive)	77.6 µM (inactive)	54.3 µM (inactive)	> 100 µM (inactive)	63.8 µM (inactive)	–	> 100 µM (inactive)	> 100 µM (inactive)	–	19 µM (inactive)	> 100 µM (inactive)	> 100 µM (inactive)	33 µM (inactive)	31.6 µM (inactive)	34.3 µM (inactive)	73.5 µM (inactive)
COc1cc2c(cc1OC)[C@]1(O)C(=O)c3ccc4c(c3O[C@@H]1CO2)C[C@H](C(C)(C)O)O4	> 100 µM (inactive)	45.8 µM (inactive)	24.9 µM (inactive)	> 100 µM (inactive)	–	22 µM (inactive)	> 100 µM (inactive)	> 100 µM (inactive)	> 100 µM (inactive)	33.6 µM (inactive)	> 100 µM (inactive)	> 100 µM (inactive)	> 100 µM (inactive)	7.29 µM (inactive)	> 100 µM (inactive)	8.3 µM (inactive)
N#CC(NNC(=O)Cc1ccccc1)c1ccc([N+](=O)[O-])cc1 (configuration not stated)	> 100 µM (inactive)	–	> 100 µM (inactive)	> 100 µM (inactive)	> 100 µM (inactive)	65.6 µM (inactive)	> 100 µM (inactive)	> 100 µM (inactive)	> 100 µM (inactive)	55.3 µM (inactive)	> 100 µM (inactive)	> 100 µM (inactive)	> 100 µM (inactive)	> 100 µM (inactive)	> 100 µM (inactive)	> 100 µM (inactive)
O=C1C(c2ccccc2)=C(c2ccccc2)[C@H](c2ccccc2)[C@]1(Cc1nnn(-c2ccc([N+](=O)[O-])cc2)c1N1CCOCC1)c1ccccc1	> 37.5 µM (inactive)	> 37.5 µM (inactive)	> 37.5 µM (inactive)	> 37.5 µM (inactive)	13.7 µM (inactive)	> 37.5 µM (inactive)	–	–	> 37.5 µM (inactive)	0.00621 µM (active)	> 37.5 µM (inactive)	> 37.5 µM (inactive)	> 37.5 µM (inactive)	–	> 37.5 µM (inactive)	9.62 µM (inactive)
NC(=O)NC1C(C(N)=O)N(Cc2ccccc2)C(=O)N1Cc1ccccc1 (configuration not stated)	> 100 µM (inactive)	–	> 100 µM (inactive)	> 100 µM (inactive)	> 100 µM (inactive)	> 100 µM (inactive)	> 100 µM (inactive)	> 100 µM (inactive)	> 100 µM (inactive)	> 100 µM (inactive)	> 100 µM (inactive)	> 100 µM (inactive)	> 100 µM (inactive)	> 100 µM (inactive)	> 100 µM (inactive)	–
Cc1cc(C(=O)NCCN(C)C)c2nc3ccccc3nc2c1	5.05 µM (inactive)	3.92 µM (inactive)	3.41 µM (inactive)	3.88 µM (inactive)	4.75 µM (inactive)	4.52 µM (inactive)	4.33 µM (inactive)	3.91 µM (inactive)	4.98 µM (inactive)	1.06 µM (active)	2.17 µM (inactive)	4.42 µM (inactive)	4.81 µM (inactive)	–	6.32 µM (inactive)	5.37 µM (inactive)
CCCCCCCCCCCC(=O)OCC1OC(n2cc(F)c(=O)[nH]c2=O)C(NC(=O)OCc2ccccc2)C(O)C1O (configuration not stated)	19.1 µM (inactive)	20.1 µM (inactive)	20.6 µM (inactive)	20.8 µM (inactive)	23.8 µM (inactive)	11.1 µM (inactive)	19.1 µM (inactive)	21.3 µM (inactive)	19.6 µM (inactive)	22.4 µM (inactive)	44.9 µM (inactive)	38.8 µM (inactive)	> 100 µM (inactive)	30.3 µM (inactive)	19.3 µM (inactive)	27.2 µM (inactive)
N#CC(C(=O)/C(=N\Nc1nc(S)nn1N)C(C#N)c1ccc(Cl)cc1)c1ccc(Cl)cc1 (configuration not stated)	> 100 µM (inactive)	> 100 µM (inactive)	–	> 100 µM (inactive)	> 100 µM (inactive)	> 100 µM (inactive)	> 100 µM (inactive)	> 100 µM (inactive)	> 100 µM (inactive)	> 100 µM (inactive)	> 100 µM (inactive)	> 100 µM (inactive)	> 100 µM (inactive)	> 100 µM (inactive)	> 100 µM (inactive)	> 100 µM (inactive)
CC(C)(C)C(=O)O[C@@H]1COC2C(O)COC21 (some centres not stated)	> 100 µM (inactive)	–	> 100 µM (inactive)	> 100 µM (inactive)	> 100 µM (inactive)	> 100 µM (inactive)	–	> 100 µM (inactive)	> 100 µM (inactive)	> 100 µM (inactive)	> 100 µM (inactive)	> 100 µM (inactive)	> 100 µM (inactive)	> 100 µM (inactive)	> 100 µM (inactive)	> 100 µM (inactive)
N#CCCc1nc2ccc(Br)cc2c(=O)n1CCO	> 100 µM (inactive)	–	> 100 µM (inactive)	> 100 µM (inactive)	> 100 µM (inactive)	> 100 µM (inactive)	> 100 µM (inactive)	> 100 µM (inactive)	> 100 µM (inactive)	> 100 µM (inactive)	> 100 µM (inactive)	> 100 µM (inactive)	> 100 µM (inactive)	> 100 µM (inactive)	> 100 µM (inactive)	> 100 µM (inactive)
O=C(CN(Cc1ccccc1)Cc1ccccc1)N1CCc2c([nH]c3ccccc23)C1c1cccnc1 (configuration not stated)	21.2 µM (inactive)	16.7 µM (inactive)	1.71 µM (inactive)	4.59 µM (inactive)	3.99 µM (inactive)	7.36 µM (inactive)	–	4.14 µM (inactive)	3.66 µM (inactive)	2.79 µM (inactive)	39 µM (inactive)	27.5 µM (inactive)	29.7 µM (inactive)	2.63 µM (inactive)	11.1 µM (inactive)	–
CC(Oc1ccc(OCC2CCCCC2)cc1)C(=O)OCC(=O)c1ccc(-c2ccccc2)cc1 (configuration not stated)	> 100 µM (inactive)	> 100 µM (inactive)	> 100 µM (inactive)	> 100 µM (inactive)	> 100 µM (inactive)	> 100 µM (inactive)	> 100 µM (inactive)	> 100 µM (inactive)	> 100 µM (inactive)	–	–	> 100 µM (inactive)	> 100 µM (inactive)	> 100 µM (inactive)	> 100 µM (inactive)	> 100 µM (inactive)
Cc1cccc(CC(C)(C)C)c1NC(=O)C(=O)C(C(=O)c1ccc2ccccc2c1)C1OC(=O)c2ccccc21 (configuration not stated)	5.58 µM (inactive)	13.2 µM (inactive)	–	12.4 µM (inactive)	41.5 µM (inactive)	–	14.4 µM (inactive)	14.5 µM (inactive)	27.2 µM (inactive)	1.14 µM (inactive)	15.4 µM (inactive)	–	16.7 µM (inactive)	16 µM (inactive)	7.52 µM (inactive)	3.4 µM (inactive)
N/N=C1\C(=O)N(Cc2ccccc2)C(=O)C1C(=O)NCc1ccccc1 (configuration not stated)	> 100 µM (inactive)	> 100 µM (inactive)	> 100 µM (inactive)	> 100 µM (inactive)	> 100 µM (inactive)	–	> 100 µM (inactive)	> 100 µM (inactive)	> 100 µM (inactive)	> 100 µM (inactive)	> 100 µM (inactive)	> 100 µM (inactive)	> 100 µM (inactive)	> 100 µM (inactive)	> 100 µM (inactive)	> 100 µM (inactive)
